Laboratory results reported in patent publication US12384813B2, “Polymer linked multimers of guanosine-3′, 5′-cyclic monophosphates” (MIRECA MEDICINES GMBH, priority 2016, dated 2025).

Legend:
[1] = Water solubility of alkyl spacer PLDs; type: physicochemical; settings: alkyl spacers with moderate size
[2] = target: T1, PKG Iα (Homo sapiens, UniProt Q13976); settings: cited from earlier work
T1 sequence (Q13976 1-671): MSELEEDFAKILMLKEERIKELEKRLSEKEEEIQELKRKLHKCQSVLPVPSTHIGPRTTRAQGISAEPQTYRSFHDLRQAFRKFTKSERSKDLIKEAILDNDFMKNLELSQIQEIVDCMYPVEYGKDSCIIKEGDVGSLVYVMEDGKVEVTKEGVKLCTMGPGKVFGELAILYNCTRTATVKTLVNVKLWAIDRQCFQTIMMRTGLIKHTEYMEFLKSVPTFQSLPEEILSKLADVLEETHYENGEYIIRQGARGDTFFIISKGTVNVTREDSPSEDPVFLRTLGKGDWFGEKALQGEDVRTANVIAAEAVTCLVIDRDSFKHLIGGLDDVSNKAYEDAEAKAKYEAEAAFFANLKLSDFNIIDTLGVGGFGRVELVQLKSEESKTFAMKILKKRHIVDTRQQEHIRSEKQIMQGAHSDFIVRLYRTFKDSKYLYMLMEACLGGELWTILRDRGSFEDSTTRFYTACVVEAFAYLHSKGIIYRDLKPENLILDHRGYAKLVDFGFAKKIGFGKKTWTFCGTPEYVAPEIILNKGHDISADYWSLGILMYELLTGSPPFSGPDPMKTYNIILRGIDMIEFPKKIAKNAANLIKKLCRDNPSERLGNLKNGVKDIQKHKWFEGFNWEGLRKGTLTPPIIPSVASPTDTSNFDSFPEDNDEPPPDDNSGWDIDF

[3] = target: T2, PKG Iβ (Homo sapiens, UniProt Q13976); test: In vitro activation of PKG Iβ, ADP-Glo Kinase Assay (luminescence), VASPtide substrate; type: biochemical; settings: compound lacking PET moiety vs compound 5
T2 construct: made in house; host or cells: Sf9 cells
T2 sequence (Q13976 1-686 isoform Q13976-2): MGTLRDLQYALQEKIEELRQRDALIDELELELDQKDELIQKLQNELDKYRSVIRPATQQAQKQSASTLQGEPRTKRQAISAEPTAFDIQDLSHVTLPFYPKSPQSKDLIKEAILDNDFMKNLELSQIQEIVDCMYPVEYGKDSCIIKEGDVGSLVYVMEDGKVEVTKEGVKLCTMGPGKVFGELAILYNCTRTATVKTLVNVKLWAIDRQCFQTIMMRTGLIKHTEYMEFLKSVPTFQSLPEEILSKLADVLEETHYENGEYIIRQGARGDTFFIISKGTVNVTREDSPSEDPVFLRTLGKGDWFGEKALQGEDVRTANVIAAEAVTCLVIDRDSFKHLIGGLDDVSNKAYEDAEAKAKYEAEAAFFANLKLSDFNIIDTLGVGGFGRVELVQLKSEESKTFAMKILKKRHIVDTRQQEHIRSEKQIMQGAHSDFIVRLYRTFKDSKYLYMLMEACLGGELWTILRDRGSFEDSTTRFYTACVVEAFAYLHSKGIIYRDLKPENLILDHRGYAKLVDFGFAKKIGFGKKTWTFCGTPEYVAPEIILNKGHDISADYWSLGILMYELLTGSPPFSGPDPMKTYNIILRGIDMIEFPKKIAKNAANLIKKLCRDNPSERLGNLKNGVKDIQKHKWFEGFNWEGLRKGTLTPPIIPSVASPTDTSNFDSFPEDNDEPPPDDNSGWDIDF
Description: (§1) In vitro activation experiments with PKG isozymes Iα, Iβ and II were performed with the commercially available luminescence assay ADP-Glo™ Kinase Assay (Cat. #V9101) from Promega Corporation (Madison, WI, USA) according to the manufacturer's instruction manual (The ADP-Glo™ Kinase Assay Technical Manual #TM313), standardized and conducted by BIAFFIN GmbH & Co KG (Kassel, Germany). Luminescence detection was accomplished with a LUMIstar Optima microplate luminometer from BMG LABTECH GmbH (Ortenberg, Germany). […] Human PKGIβ and PKGII were expressed in Sf9 cells and purified by affinity chromatography.^2 Concentrations of enzymes given below refer to the dimeric form.
PKG Iβ (0.15 nM), 20 mM Tris (pH 7.4), 10 mM Mg2Cl2, 1 mg/mL BSA, 2.5% DMSO, 130 μM VASPtide, 50 μM ATP, room temperature, 60 min.

[4] = target: T3, PKG II (Homo sapiens, UniProt Q13237); test: In vitro activation of PKG II, ADP-Glo Kinase Assay (luminescence), VASPtide substrate; settings: compound lacking PET moiety vs compound 5
T3 sequence (Q13237 1-762): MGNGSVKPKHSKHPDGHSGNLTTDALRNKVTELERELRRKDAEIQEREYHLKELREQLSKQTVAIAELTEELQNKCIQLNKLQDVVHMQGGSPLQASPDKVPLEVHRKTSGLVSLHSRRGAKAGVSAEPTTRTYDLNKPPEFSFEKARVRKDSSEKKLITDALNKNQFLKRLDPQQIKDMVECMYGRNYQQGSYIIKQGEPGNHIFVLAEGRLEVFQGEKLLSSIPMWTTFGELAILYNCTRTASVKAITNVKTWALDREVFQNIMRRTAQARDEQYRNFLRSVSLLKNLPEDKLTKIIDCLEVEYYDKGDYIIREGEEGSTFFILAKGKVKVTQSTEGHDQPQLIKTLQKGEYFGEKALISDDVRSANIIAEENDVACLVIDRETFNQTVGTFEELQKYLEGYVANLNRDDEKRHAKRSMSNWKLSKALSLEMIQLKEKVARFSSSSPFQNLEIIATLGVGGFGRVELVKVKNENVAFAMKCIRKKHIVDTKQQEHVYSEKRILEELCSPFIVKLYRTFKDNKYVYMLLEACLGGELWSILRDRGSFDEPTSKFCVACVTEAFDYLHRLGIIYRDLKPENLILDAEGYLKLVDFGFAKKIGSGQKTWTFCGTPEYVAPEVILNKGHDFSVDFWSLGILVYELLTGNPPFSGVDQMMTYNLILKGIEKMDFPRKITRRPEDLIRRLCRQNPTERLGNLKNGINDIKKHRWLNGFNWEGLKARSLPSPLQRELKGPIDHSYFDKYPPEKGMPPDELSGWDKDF
Description: as §1
PKG II (0.5 nM), 20 mM Tris (pH 7.4), 10 mM Mg2Cl2, 1 mg/mL BSA, 5 mM (3-mercaptoethanol, 2.5% DMSO, 130 μM VASPtide, 50 μM ATP, room temperature, 120 min.

Q: Which water solubility [1] does the source give for Nc1nc2c(nc(SCCCCCCCCCCCCSc3nc4c(=O)[nH]c(N)nc4n3[C@@H]3OC4COP(=O)(O)O[C@H]4C3O)n2[C@@H]2OC3COP(=O)(O)O[C@H]3C2O)c(=O)[nH]1 (stereo partly shown) [compound 16, Guanosine-3′,5′-cyclic monophosphate-[8-thio(dodecanyl)-thio-8]-guanosine-3′,5′-cyclic monophosphate] here?
A: sufficient water solubility

Q: For Nc1nc2c(nc(Sc3ccccc3N)n2[C@@H]2O[C@@H]3COP(=O)(O)O[C@H]3[C@H]2O)c(=O)[nH]1 [8-APT-cGMP, 8-(2-NH2-Ph-S)-cGMP], which “PKG Iα activation potential compared to cGMP (literature)” value [2] is on record?
A: about 15 fold

Q: Which results are given for Nc1nc2c(nc(SCC(=O)NCCOCCOCCOCCOCCOCCOCCOCCOCCNC(=O)CSc3nc4c(=O)[nH]c(N)nc4n3C3OC4COP(=O)(O)OC4C3O)n2C2OC3COP(=O)(O)OC3C2O)c(=O)[nH]1 (stereo not shown) [compound 3, Guanosine-3′,5′-cyclic monophosphate-[8-thiomethylamido-(octaethoxy)-ethylamidomethylthio-8]-guanosine-3′,5′-cyclic monophosphate]?
A: decrease of relative PKG Iβ activation compared to compound 5 [3]: more than 51 fold; increase of relative PKG II activation compared to compound 5 [4]: 30 fold
